Assay results as given in patent US20030013041A1, “Optical data carrier comprising a cationic aminoheterocyclic dye as light-absorbent compound in the information layer” (priority 2001, published 2003).

Experiments:
Assay type in all cases: physicochemical
[1] = Absorption spectrum measured in solution; conditions: for λmax (methylene chloride): in methylene chloride; for λmax (methanol): in methanol; for λ1/2-λ1/10 (long wavelength flank): on the long wavelength flank; for λ1/2-λ1/10 (short wavelength flank): on the short wavelength flank
Source text: In the case of a write-once optical data carrier according to the invention which is written on and read by means of the light of a blue laser, preference is also given to cationic aminoheterocyclic dyes whose absorption maximum λmax2 is in the range from 420 to 550 nm, where the wavelength λ½ at which the absorbance in the short wavelength flank of the absorption maximum at the wavelength λmax2 is half of the absorbance value at λmax2 and the wavelength λ 1/10 at which the absorbance in the short wavelength flank of the absorption maximum at the wavelength λmax2 is one tenth of the absorbance value at λmax2 are preferably not more than 50 nm apart. Such a cationic aminoheterocyclic dye preferably has no shorter-wavelength maximum λmax1 down to a wavelength of 350 nm, particularly preferably down to 320 nm, very particularly preferably down to 290 nm.
In the case of a write-once optical data carrier according to the invention which is written on and read by means of the light of a red laser, preference is given to cationic aminoheterocyclic dyes whose absorption maximum λmax2 is in the range from 500 to 650 nm, where the wavelength λ½ at which the absorbance in the long wavelength flank of the absorption maximum at the wavelength λmax2 is half of the absorbance value at λmax2 and the wavelength λ 1/10 at which the absorbance in the long wavelength flank of the absorption maximum at the wavelength λmax2 is one tenth of the absorbance value at λmax2 are preferably not more than 50 nm apart. Such a cationic aminoheterocyclic dye preferably has no longer-wavelength maximum λmax3 up to a wavelength of 750 nm, particularly preferably up to 800 nm, very particularly preferably up to 850 nm.
The absorption spectra are measured, for example, in solution.
Suitable cationic aminoheterocyclic dyes having the required spectral properties are, in particular, those in which the dipole moment change Δμ=|μg−μag|, i.e. the positive difference between the dipole moments in the ground state and in the first excited state, is very small, preferably <5 D, particularly preferably <2 D. A method of determining such a dipole moment change Ap is described, for example, in F. Wuirthner et al., Angew. Chem. 1997, 109, 2933, and in the literature cited therein. A low solvent-induced wavelength shift (methanol/methylene chloride) is likewise a suitable selection criterion. Preference is given to cationic aminoheterocyclic dyes whose solvent-induced wavelength shift Δλ=|λmethylene chloride−λmethanol|, i.e. the positive difference between the absorption wavelengths in the solvents methylene chloride and methanol, is <25 nm, particularly preferably <15 nm, very particularly preferably <5 nm.

Solubility in TFP = experiment: Solubility in TFP
Film formation = experiment: Film formation
Source text: Apart from the abovementioned optical properties, the writeable information layer comprising light-absorbent organic substances has to have a substantially amorphous morphology to keep the noise signal during writing or reading as small as possible. For this reason, it is particularly preferred that crystallization of the light-absorbent substances be prevented in the application of the substances by spin coating from a solution, by vapour deposition and/or sublimation during subsequent covering with metallic or dielectric layers under reduced pressure.

Compound | ε ([1]; at λmax in methylene chloride) | λmax (methylene chloride) [1] [nm] | ε ([1]; at λmax in methanol) | λmax (methanol) [1] [nm] | λ1/2-λ1/10 (long wavelength flank) [1] [nm] | λ1/2-λ1/10 (short wavelength flank) [1] [nm] | Solubility (Solubility in TFP) [%] | Film appearance (Film formation) | ε ([1]; solvent not stated, printed after λmax in methanol and methylene chloride)
CN(c1ccccc1)c1nc2c(s1)C=C1S/C(=[N+](\C)c3ccccc3)N=C1C2(C)C [Example 8] | 43650 L/mol/cm | 623 | – | – | – | – | – | – | –
CCCCN(CCCC)c1ccc(/C=C/C2=[N+](C)c3ccccc3C2(C)C)s1 [Example 3] | 98 554 l/mol cm | 543 | 68 555 l/mol cm | 528 | 14 | 34 | > 2 | Glass-like film | –
CC1(C)C2=NC(=[N+]3CCCC3)SC2=Cc2sc(N3CCCC3)nc21 [Example 7] | 37153 L/mol/cm | 616 | – | – | 27 | 50 | – | – | –
C(=C1/SC(=[N+]2CCOCC2)N=C1c1ccccc1)/c1sc(N2CCOCC2)nc1-c1ccccc1 [Example 1] | – | 587 | – | 581 | 14.5 | 42 | > 2 | – | 102 800 l/mol cm
CN(C)c1ccc(/C=C2\SC(=[N+]3CCOCC3)N=C2c2ccccc2)cc1 [Example 4] | 104 970 l/mol cm | 601 | – | – | 19 | 42 | > 2 | – | –
CN(C)c1ccc(/C=C/C2=[N+](C)c3ccccc3C2(C)C)o1 [Example 2] | – | – | 87 670 l/mol cm | 551 | 30 | 41 | > 2 | Glass-like film | –
